2 molecules from the NIST ThermoML archive (doi:10.1016/j.jct.2006.04.009) can be followed below.

For this data set the following is noted: Liquid.

± gives the expanded uncertainty stated by the source.

With `FC(F)C(F)(F)F` [pentafluoroethane], the “vapor or sublimation pressure” value is, setting by setting: (313.15 K) 2009 ± 24 kPa; (323.15 K) 2537 ± 30 kPa; (333.15 K) 3170 ± 37 kPa.

Turning to `COC` [dimethyl ether], the “vapor or sublimation pressure” value is recorded as 887 ± 10 kPa (313.15 K); 1147 ± 13 kPa (323.15 K); 1451 ± 17 kPa (333.15 K); 1817 ± 21 kPa (343.15 K); 2251 ± 26 kPa (353.15 K); 2738 ± 32 kPa (363.15 K).

As a reminder, the vapor or sublimation pressure is the equilibrium pressure above the liquid or solid.
